Common to all, as to format: cell-based
Data set [1] deals with TRPM8 (hTRPM8) (Homo sapiens, UniProt Q7Z2W7). The data set is described as follows: Fluo-4 calcium flux assay, HEK-293 TRPM8 cells. Particulars: antagonist mode; 30 min incubation; normalized to icilin (50 µM) response. (In general: A change in cytosolic calcium serves as a functional read-out for many receptors and channels.)
Data set [2] concerns the target KCa1.1 (hKCa1.1, KCNMA) (Homo sapiens, UniProt Q12791). As to the kind of experiment: two-electrode voltage clamp, Xenopus laevis oocytes. The note with it: Kulori solution, pH 7.4; n=5.
In data set [3] the target is KV11.1 (hERG) (Homo sapiens, UniProt Q12809). As to the kind of experiment: automated patch clamp.
KV11.1 (hERG), sequence (Q12809 whole entry): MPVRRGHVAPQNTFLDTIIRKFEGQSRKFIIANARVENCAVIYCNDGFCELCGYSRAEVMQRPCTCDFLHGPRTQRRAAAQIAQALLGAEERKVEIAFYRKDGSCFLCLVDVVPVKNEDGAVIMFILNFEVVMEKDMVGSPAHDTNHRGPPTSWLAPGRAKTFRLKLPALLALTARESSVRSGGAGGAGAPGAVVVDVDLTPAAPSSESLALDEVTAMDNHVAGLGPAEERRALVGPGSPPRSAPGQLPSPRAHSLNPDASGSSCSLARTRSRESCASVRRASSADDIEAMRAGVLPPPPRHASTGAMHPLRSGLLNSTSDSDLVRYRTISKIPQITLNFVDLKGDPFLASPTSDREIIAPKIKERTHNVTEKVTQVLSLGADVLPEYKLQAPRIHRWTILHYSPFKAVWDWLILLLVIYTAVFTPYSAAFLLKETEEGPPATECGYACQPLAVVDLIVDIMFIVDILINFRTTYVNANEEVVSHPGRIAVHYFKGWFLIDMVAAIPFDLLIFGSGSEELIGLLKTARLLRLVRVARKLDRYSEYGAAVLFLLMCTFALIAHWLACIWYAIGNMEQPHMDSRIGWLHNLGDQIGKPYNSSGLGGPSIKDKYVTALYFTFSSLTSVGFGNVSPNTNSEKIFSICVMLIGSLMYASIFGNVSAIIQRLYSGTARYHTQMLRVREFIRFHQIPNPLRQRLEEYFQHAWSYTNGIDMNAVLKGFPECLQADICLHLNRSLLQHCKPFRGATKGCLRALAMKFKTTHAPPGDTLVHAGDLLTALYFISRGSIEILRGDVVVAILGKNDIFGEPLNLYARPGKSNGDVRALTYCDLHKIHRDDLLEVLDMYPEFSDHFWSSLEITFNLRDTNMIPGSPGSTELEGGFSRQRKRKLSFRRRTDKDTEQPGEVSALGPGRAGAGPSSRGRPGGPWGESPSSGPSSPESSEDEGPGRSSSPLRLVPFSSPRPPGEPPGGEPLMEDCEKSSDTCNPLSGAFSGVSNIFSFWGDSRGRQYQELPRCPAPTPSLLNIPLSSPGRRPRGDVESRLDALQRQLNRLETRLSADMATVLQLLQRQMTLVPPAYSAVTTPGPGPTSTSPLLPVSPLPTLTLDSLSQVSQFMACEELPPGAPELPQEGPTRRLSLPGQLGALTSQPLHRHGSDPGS

KCa1.1 (hKCa1.1, KCNMA), sequence (Q12791 whole entry): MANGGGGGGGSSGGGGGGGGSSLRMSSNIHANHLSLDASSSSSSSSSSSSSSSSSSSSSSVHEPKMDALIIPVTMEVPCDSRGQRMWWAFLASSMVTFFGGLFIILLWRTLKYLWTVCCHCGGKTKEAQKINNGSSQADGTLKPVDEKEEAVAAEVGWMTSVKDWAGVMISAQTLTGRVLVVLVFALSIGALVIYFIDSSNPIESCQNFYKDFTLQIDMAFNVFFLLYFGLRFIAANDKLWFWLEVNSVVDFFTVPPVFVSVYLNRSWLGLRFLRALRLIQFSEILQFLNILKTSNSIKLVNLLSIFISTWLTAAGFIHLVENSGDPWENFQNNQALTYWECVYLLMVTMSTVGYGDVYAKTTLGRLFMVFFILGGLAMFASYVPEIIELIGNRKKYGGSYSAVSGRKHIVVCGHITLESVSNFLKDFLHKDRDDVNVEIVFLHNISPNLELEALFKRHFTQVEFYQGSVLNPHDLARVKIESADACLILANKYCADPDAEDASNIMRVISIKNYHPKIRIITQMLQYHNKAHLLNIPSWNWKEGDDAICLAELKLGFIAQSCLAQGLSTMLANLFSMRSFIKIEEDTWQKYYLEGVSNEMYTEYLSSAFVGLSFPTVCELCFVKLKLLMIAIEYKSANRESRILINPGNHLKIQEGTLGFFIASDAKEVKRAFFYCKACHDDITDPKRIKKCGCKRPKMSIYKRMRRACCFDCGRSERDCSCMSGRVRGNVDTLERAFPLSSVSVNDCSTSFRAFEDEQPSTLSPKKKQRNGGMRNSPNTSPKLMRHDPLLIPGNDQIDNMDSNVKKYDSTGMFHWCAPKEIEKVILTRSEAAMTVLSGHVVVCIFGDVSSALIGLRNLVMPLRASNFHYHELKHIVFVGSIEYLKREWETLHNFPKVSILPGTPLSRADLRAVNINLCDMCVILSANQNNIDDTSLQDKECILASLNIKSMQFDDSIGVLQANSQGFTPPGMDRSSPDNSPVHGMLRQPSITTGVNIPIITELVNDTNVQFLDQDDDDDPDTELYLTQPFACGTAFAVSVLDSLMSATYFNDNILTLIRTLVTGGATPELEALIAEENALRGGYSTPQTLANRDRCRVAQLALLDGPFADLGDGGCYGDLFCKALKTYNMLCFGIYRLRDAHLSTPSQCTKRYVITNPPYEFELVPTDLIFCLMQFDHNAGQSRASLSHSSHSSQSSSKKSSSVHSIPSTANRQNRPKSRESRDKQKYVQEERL
TRPM8 (hTRPM8), sequence (Q7Z2W7 whole entry): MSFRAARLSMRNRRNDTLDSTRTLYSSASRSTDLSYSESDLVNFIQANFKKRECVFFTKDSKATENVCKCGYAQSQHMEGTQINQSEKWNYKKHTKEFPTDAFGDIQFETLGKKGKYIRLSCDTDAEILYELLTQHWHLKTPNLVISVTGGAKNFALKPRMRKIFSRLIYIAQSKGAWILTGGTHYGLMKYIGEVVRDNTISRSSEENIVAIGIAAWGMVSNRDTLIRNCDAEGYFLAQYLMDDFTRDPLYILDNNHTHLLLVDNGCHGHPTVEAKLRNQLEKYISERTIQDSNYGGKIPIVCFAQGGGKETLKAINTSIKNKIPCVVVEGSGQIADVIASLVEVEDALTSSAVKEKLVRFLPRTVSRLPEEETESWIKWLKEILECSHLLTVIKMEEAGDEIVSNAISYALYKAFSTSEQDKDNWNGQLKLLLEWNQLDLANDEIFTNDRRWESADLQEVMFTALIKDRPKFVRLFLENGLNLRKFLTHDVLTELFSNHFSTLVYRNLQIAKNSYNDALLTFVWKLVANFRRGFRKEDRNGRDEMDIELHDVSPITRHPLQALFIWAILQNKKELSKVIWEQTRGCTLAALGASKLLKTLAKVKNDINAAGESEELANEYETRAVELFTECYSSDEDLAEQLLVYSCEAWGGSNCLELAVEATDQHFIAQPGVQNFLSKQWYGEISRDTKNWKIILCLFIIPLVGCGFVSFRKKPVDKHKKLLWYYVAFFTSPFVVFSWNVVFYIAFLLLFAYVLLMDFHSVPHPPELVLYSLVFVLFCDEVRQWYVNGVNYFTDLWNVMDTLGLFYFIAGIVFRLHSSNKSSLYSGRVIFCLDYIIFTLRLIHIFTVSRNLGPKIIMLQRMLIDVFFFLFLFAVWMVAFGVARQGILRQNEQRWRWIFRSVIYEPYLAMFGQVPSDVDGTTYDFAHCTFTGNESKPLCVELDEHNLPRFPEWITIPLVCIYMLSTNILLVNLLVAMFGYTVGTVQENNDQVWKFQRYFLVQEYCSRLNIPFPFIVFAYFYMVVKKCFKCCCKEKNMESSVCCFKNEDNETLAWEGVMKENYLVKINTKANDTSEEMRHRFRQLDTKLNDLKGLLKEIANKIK

Regarding `COc1c(I)cc(CCN)cc1I` [DIMTA, 2-(3,5-diiodo-4-methoxyphenyl)ethan-1-amine], the results for the IC50 in data set [1] and in data set [3] were 112 µM and 18.7 ± 0.1 µM, respectively. For the same molecule, the % inhibition (commonly how much of the control response was suppressed) at 5 μM in data set [2] is reported as 18 ± 5%.

The values are drawn from publication doi:10.1101/2021.05.05.442828v1 (biorxiv, 2021).
